Test results reported in ChEMBL document CHEMBL2016485, “Design and optimization of quinazoline derivatives as melanin concentrating hormone receptor 1 (MCHR1) antagonists: part 2” (Bioorg Med Chem Lett, 2012).
Values after ≈ are worked out from the molar mass of the structure shown.

Tests used:
[1] = AUC at steady state in diet-induced obese C57BL/6J mouse model plasma at 100 mg/kg, po qd dosed through CMC/Tween 80 suspension for 14 days measured at day 14; format: ADME, organism-based; parameters: dose 100 mg/kg, route oral
[2] = AUC at steady state in diet-induced obese C57BL/6J mouse model brain at 100 mg/kg, po qd dosed through CMC/Tween 80 suspension for 14 days measured at day 14; format: ADME, organism-based; parameters: dose 100 mg/kg, route oral
[3] = Cmax at steady state in diet-induced obese C57BL/6J mouse model plasma at 100 mg/kg, po qd dosed through CMC/Tween 80 suspension for 14 days measured at day 14; format: ADME, organism-based; parameters: dose 100 mg/kg, route oral
[4] = Cmax at steady state in diet-induced obese C57BL/6J mouse model brain at 100 mg/kg, po qd dosed through CMC/Tween 80 suspension for 14 days measured at day 14; format: ADME, organism-based; parameters: dose 100 mg/kg, route oral
[5] = Solubility in fasted state simulated intestinal fluid at pH 6.5 at 0.5 hrs; format: physicochemical
[6] = AUC (0 to 24 hrs) in mouse at 30 mg/kg, po; format: ADME, organism-based; parameters: time < 24 hr, dose 30 mg/kg, route oral; conditions: plasma
[7] = AUC (0 to 24 hrs) in rat at 30 mg/kg, po; format: ADME, organism-based; parameters: time < 24 hr, dose 30 mg/kg, route oral; conditions: plasma
[8] = Cmax in mouse at 30 mg/kg, po relative to initial plasma concentration; format: ADME, organism-based; parameters: dose 30 mg/kg, route oral
[9] = Cmax in rat at 30 mg/kg, po relative to initial plasma concentration; format: ADME, organism-based; parameters: dose 30 mg/kg, route oral
[10] = AUC at steady state in diet-induced obese C57BL/6J mouse model plasma at 30 mg/kg, po bid dosed through micronized suspension for 14 days measured at day 14; format: ADME, organism-based; parameters: dose 30 mg/kg, route oral
[11] = AUC at steady state in diet-induced obese C57BL/6J mouse model brain at 30 mg/kg, po bid dosed through micronized suspension for 14 days measured at day 14; format: ADME, organism-based; parameters: dose 30 mg/kg, route oral
[12] = Cmax at steady state in diet-induced obese C57BL/6J mouse model plasma at 30 mg/kg, po bid dosed through micronized suspension for 14 days measured at day 14; format: ADME, organism-based; parameters: dose 30 mg/kg, route oral
[13] = Cmax at steady state in diet-induced obese C57BL/6J mouse model brain at 30 mg/kg, po bid dosed through micronized suspension for 14 days measured at day 14; format: ADME, organism-based; parameters: dose 30 mg/kg, route oral
[14] = AUC (0 to 24 hrs) in dog at 5 mg/kg, po; format: ADME, organism-based, Canis lupus familiaris; parameters: time < 24 hr, dose 5 mg/kg, route oral; conditions: plasma
[15] = AUC (0 to 24 hrs) in dog at 6 mg/kg, iv; format: ADME, organism-based, Canis lupus familiaris; parameters: time < 24 hr, dose 6 mg/kg, route intravenous; conditions: plasma
[16] = Cmax in dog at 5 mg/kg, po relative to initial plasma concentration; format: ADME, organism-based, Canis lupus familiaris; parameters: dose 5 mg/kg, route oral
[17] = Cmax in dog at 6 mg/kg, iv relative to initial plasma concentration; format: ADME, organism-based, Canis lupus familiaris; parameters: dose 6 mg/kg, route intravenous
[18] = Cmax in beagle dog at 6 mg/kg, iv; format: ADME, organism-based, Canis lupus familiaris; parameters: dose 6 mg/kg, route intravenous; conditions: in vivo

| SMILES | solubility at 0.5 h [5] [µM] | AUC(0-t) at 24 h [7] [µM·h] | Cmax [9] [µM] | AUC at 336 h [10] [µM·h] | AUC at 336 h [11] [µM·h] | Cmax [12] [µM] | Cmax [13] [µM] | other results |
| --- | --- | --- | --- | --- | --- | --- | --- | --- |
| Cc1nc(N2CCC(O)(C3CC3)CC2)nc2ccc(NC(=O)/C=C/c3ccc(Cl)cc3)cc12 | 1.7 (≈ 0.787 µg/mL) | 26.6 | 2.4 | – | – | – | – | AUC at 336 h [1]: 104 µM·h; AUC at 336 h [2]: 30.2 µM·h; Cmax [3]: 5.9 µM; Cmax [4]: 2.1 µM; AUC(0-t) at 24 h [6]: 33.4 µM·h; Cmax [8]: 2.1 µM |
| Cc1nc(N2CCC(N3CCOCC3=O)CC2)nc2ccc(NC(=O)/C=C/c3ccc(OC(F)(F)F)cc3)cc12 | – | – | – | 312 | 104 | 16.5 | 6.3 | – |
| Cc1nc(N2CCC(N3CCCC3=O)CC2)nc2ccc(NC(=O)/C=C/c3ccc(OC(F)(F)F)cc3)cc12 | – | – | – | 385 | 95.1 | 17.7 | 5.6 | – |
| Cc1nc(N2CCC(N3CCOC3=O)CC2)nc2ccc(NC(=O)/C=C/c3ccc(OC(F)(F)F)cc3)cc12 | – | – | – | 284 | 67.6 | 12.7 | 3.7 | – |
| CS(=O)(=O)O.Cc1nc(N2CCC(O)(C3CC3)CC2)nc2ccc(NC(=O)/C=C/c3ccc(Cl)cc3)cc12 | 11.2 | 79.6 | 7.8 | – | – | – | – | AUC(0-t) at 24 h [14]: 37.7 µM·h; AUC(0-t) at 24 h [15]: 43.5 µM·h; Cmax [16]: 2.5 µM; Cmax [17]: 9.9 µM; Cmax [18]: 6.4 µM |
